The source of these data is US11202814B2, “Compositions for atopic skin” (INFINITEC ACTIVOS, S.L., priority 2018, dated 2021).

This experiment deals with PGE2 release. The experiment is described as follows: Inhibitory effect on PGE2 release in cell culture, inflammation induced by IL1a. It counts as cell-based, human. Here is the method:
The inhibitory effect on IL1a inflammatory induction of the non-encapsulated composition of Pinus pinaster bark extract and curcumin, capsules loaded with Pinus pinaster bark extract and curcumin, unloaded capsules, non-encapsulated composition of Pinus pinaster bark extract and non-encapsulated composition of curcumin were analysed on human dermal fibroblasts.
Human dermal fibroblasts (LIFE TECHNOLOGIES), seeded in a 96-well plate up to 80% confluency, were treated with the following compositions dissolved in medium DMEM (Dulbecco's Modified Eagle Medium) to a total volume of 1 ml: • a) pine bark extract (1%) • b) curcumin (0.01%) • c) Phosphotech phospholipids (having the same composition has described in example 2) (4%) • d) curcumin (0.01%)+pine bark extract (1%) • e) capsules (curcumin (0.01%)+pine bark extract (1%)+Phosphotech phospholipids (having the same composition has described in example 2) (4%)) for 48 hours. […] After 24 hours inhibitory effect on PGE2 in culture cell was measured using prostaglandin E2 EIA kit (Prostaglandin E2 EIA kit—Monoclonal (Item: 514010) Cayman Chemical).
The results are provided in Table 4 below wherein the PGE2 release is expressed in pg/ml. The reduction vs IL1a-induced fibroblasts is calculated as the result of PGE2 obtained for each treatment/the result of PGE2 obtained for IL1a-induced fibroblasts (without any treatment). […]

On to curcumin [Composition b], for which the “Calculated reduction vs IL1a-induced fibroblasts” value (PGE2 of treatment / PGE2 of IL1a-induced fibroblasts (2170 pg/ml)) was 0.232. In addition, the “PGE2” value (human dermal fibroblasts treated 48 hours, IL1a 5 pM, untreated IL1a-induced fibroblasts 2170, control 471 pg/ml) is 503 pg/mL.
